Consider 24 molecules from patent publication US12668586B2, “AhR inhibitor, use thereof, and preparation method therefor” (CHONGQING PHARSCIN INNOBIO CO., LTD., priority 2021, dated 2026).

The test has as its target T1, AhR (Homo sapiens, UniProt P35869).
T1 sequence (P35869 11-848): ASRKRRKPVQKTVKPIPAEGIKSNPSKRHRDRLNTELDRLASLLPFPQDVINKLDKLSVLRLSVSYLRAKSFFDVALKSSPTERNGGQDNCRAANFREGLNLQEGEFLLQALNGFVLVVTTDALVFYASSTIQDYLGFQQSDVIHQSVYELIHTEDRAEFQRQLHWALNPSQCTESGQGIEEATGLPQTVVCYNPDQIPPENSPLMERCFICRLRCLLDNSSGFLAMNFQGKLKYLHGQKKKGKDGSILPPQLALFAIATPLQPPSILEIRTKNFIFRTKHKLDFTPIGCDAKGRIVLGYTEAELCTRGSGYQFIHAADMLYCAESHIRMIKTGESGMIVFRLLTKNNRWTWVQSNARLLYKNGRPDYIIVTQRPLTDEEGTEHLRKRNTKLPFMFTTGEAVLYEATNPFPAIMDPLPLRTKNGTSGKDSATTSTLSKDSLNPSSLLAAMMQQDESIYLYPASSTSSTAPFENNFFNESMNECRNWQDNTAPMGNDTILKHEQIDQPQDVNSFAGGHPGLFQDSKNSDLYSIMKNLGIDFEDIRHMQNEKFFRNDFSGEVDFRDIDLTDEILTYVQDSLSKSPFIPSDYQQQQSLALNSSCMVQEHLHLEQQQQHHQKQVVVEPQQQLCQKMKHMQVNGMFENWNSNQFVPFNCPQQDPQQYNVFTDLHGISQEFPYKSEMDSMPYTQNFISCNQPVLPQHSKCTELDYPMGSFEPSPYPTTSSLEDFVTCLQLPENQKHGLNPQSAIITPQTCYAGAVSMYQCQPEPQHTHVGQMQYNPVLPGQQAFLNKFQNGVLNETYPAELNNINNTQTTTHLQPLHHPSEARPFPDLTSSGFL
The experiment in a line: AhR inhibitory activity experiment, in vitro assay 1: HepG2-Lucia AhR cells, Lucia luciferase reporter (QUANTI-Luc). The test is classed as cell-based. As to conditions: 24 hours incubation at 37° C., Lucia luciferase in supernatant, read-out: AhR inhibitory activity C50. Here is the method:
Test Example: AhR Inhibitory Activity Experiment
When QUANTI-Luc™ (InvivoGen Company) testing reagents are used, AhR gene signaling pathways can be studied by monitoring the activity of Lucia luciferase in the cell culture supernatant.
In Vitro Assay 1: Assay on Inhibitory Activity in Human Cell Lines
Adherent cell layers of HepG2-Lucia™ AhR cells in a logarithmic growth phase were washed with PBS, and then the cells were isolated with trypsin. The isolated cells were centrifuged at 1000 RPM for 5 minutes, the supernatant was removed, and the cells were re-suspended with a test medium by 1.25×10^5 cells/ml.
20,000 cells were added to each well of a 96-well plate, and the 96-well plate was placed in a CO2 incubator to incubate the cells at 37° C. for 24 hours in the absence (negative control) or presence of test compounds with gradient increasing concentrations (typical dilutions: 169 pmol/L, 0.5 nmol/L, 1.5 nmol/L; 4.6 nmol/L, 13.7 nmol/L, 41 nmol/L, 123 nmol/L, 370 nmol/L, 1.1 μmol/L, 3.3 μmol/L and 10 μmol/L, in triplicate).
The 20 μl/well cell supernatant was transferred to a black 96-well plate, a 50 μL/well QUANTI-Luc™ solution was added, and the activity of Lucia luciferase was measured on a multifunctional ELISA reader Spark 10 M (Tecan Company) through a QUANTI-Luc™ luciferase assay system.
Experimental results are shown in Table 1, wherein for IC50 values, “++++” represents IC50<0.05 μM; “+++” represents IC50 between 0.05 μM and 0.2 μM; “++” represents IC50 between 0.2 μM and 1.0 μM; and “+” represents IC50>1.0 μM.
As to `C[C@H](NC(=O)c1cc(-c2ccc(Cl)cc2)nc(-c2cnn(C)c2)n1)c1ccncc1` [Compound 4, (S)-6-(4-chlorophenyl)-N-(1-(4-pyridine)ethyl)-2-(1-methyl-1H-pyrazol-4-yl)pyrimidine-4-formamide], the IC50 is less than 50 nM.

For `C[C@H](NC(=O)c1cc(-c2ccc(Cl)cc2)nc(-c2cnn(C)c2)n1)c1ccnc(F)c1` [Compound 15, (S)-6-(4-chlorophenyl)-N-(1-(2-fluoro-4-pyridine)ethyl)-2-(1-methyl-1H-pyrazol-4-yl)pyrimidine-4-formamide], the IC50 is less than 50 nM.

In the case of `O=C(N[C@H]1CCc2ncccc21)c1cc(-c2ccc(Cl)cc2)nc(-c2ccnc(F)c2)n1` [Compound 62, (S)-6-(4-chlorophenyl)-N-((S)-6,7-dihydro-5H-cyclopentano[B]pyridin-5-yl)-2-(2-fluoro-4-pyridine)pyrimidine-4-formamide], the IC50 was less than 50 nM.

For the molecule `Cn1cc(-c2nc(C(=O)NC3(C)CCN(CC(F)(F)F)CC3)cc(-c3ccc(Cl)cc3)n2)cn1` [Compound 44, 6-(4-chlorophenyl)-N-((4-yl-4-methylpiperidin-1-yl)trifluoroethyl)-2-(1-methyl-1H-pyrazol-4-yl)pyrimidine-4-formamide], the IC50 is less than 50 nM.

Turning to `Cn1cc(-c2nc(C(=O)N[C@H]3CCc4ncccc43)cc(-c3ccc(Cl)cc3)n2)cn1` [Compound 2, (S)-6-(4-chlorophenyl)-N-((S)-6,7-dihydro-5H-cyclopentano[B]pyridin-5-yl)-2-(1-methyl-1H-pyrazol-4-yl)pyrimidine-4-formamide], the IC50 was less than 50 nM.

With `COc1ccc([C@H](C)NC(=O)c2cc(-c3ccc(Cl)cc3)nc(-c3cnn(C)c3)n2)cc1F` [Compound 8, (S)-6-(4-chlorophenyl)-N-(1-(3-fluoro-4-methoxyphenyl)ethyl)-2-(1-methyl-1H-pyrazol-4-yl)pyrimidine-4-formamide], the IC50 is less than 50 nM.

Consider `C[C@H](NC(=O)c1cc(-c2ccc(Cl)cc2)nc(-c2cnn(C)c2)n1)c1ccc(O)c(F)c1` [Compound 11, (S)-6-(4-chlorophenyl)-N-(1-(3-fluoro-4-hydroxyphenyl)ethyl)-2-(1-methyl-1H-pyrazol-4-yl)pyrimidine-4-formamide], for which the IC50 is more than 1000 nM.

On to `O=C(N[C@H]1CCc2ncccc21)c1cc(-c2ccc(C(F)(F)F)cc2)nc(-c2cccnc2)n1` [Compound 55, (S)-6-(4-trifluoromethylphenyl)-N-((S)-6,7-dihydro-5H-cyclopentano[B]pyridin-5-yl)-2-(pyridin-3-yl)pyrimidine-4-formamide], for which the IC50 is less than 50 nM.

With `Cn1cc(-c2nc(C(=O)N[C@H]3CC(C)(C)c4ccccc43)cc(-c3ccc(Cl)cc3)n2)cn1` [Compound 25, (S)-6-(4-chlorophenyl)-N-((S)-(3,3-dimethyl-2,3-dihydro)-(−)-1-yl-2-indene)-2-(1-methyl-1H-pyrazol-4-yl)pyrimidine-4-formamide], the IC50 was more than 1000 nM.

Turning to `COc1ccc(-c2nc(C(=O)N[C@@H](C)c3ccnc(F)c3)cc(-c3ccc(Cl)cc3)n2)cc1` [Compound 50, (S)-6-(4-chlorophenyl)-N-(1-(2-fluoro-4-pyridine)ethyl)-2-(p-methoxyphenyl)pyrimidine-4-formamide], the IC50 is more than 1000 nM.

`C[C@H](NC(=O)c1cc(-c2ccc(Cl)cc2)nc(-c2cnn(C3CC3)c2)n1)c1ccnc(F)c1` [Compound 39, (S)-6-(4-chlorophenyl)-N-(1-(2-fluoro-4-pyridine)ethyl)-2-(1-cyclopropylpyrazol-4-yl)pyrimidine-4-formamide]: the IC50 was more than 1000 nM.

`C[C@H](NC(=O)c1cc(-c2ccc(Cl)cc2)nc(-c2cnn(C)c2)n1)c1ccc(Cl)c(F)c1` [Compound 13, (S)-6-(4-chlorophenyl)-N-(1-(3-fluoro-4-chlorophenyl)ethyl)-2-(1-methyl-1H-pyrazol-4-yl)pyrimidine-4-formamide]: the IC50 is less than 50 nM.

Turning to `Cn1cc(-c2nc(C(=O)N[C@H]3c4ccccc4C[C@H]3O)cc(-c3ccc(Cl)cc3)n2)cn1` [Compound 3, (S)-6-(4-chlorophenyl)-N-((1S, 2R)-(−)-1-yl-2-indanol)-2-(1-methyl-1H-pyrazol-4-yl)pyrimidine-4-formamide], the IC50 is 50 to 200 nM.

Turning to `C[C@H](NC(=O)c1cc(-c2ccc(C#N)cc2)nc(-c2cnn(C)c2)n1)c1ccnc(F)c1` [Compound 58, (S)-6-(4-cyanophenyl)-N-(1-(2-fluoro-4-pyridine)ethyl)-2-(1-methyl-1H-pyrazol-4-yl)pyrimidine-4-formamide], the IC50 was in the range of 50 to 200 nM.

For `C[C@H](NC(=O)c1cc(-c2cnn(C)c2)nc(-c2cnn(C)c2)n1)c1ccnc(F)c1` [Compound 48, (S)-6-(1-methyl-1H-pyrazol-4-yl)-N-(1-(2-fluoro-4-pyridine)ethyl)-2-(1-methyl-1H-pyrazol-4-yl)pyrimidine-4-formamide], the IC50 is more than 1000 nM.

For `C[C@H](NC(=O)c1cc(-c2ccc(Cl)cc2)nc(-c2cnn(C)c2)n1)c1ccc2c(c1)OCO2` [Compound 16, (S)-6-(4-chlorophenyl)-N-(1-[5(2H-1,3-benzodioxomethylene)]ethyl)-2-(1-methyl-1H-pyrazol-4-yl)pyrimidine-4-formamide], the IC50 lay in the range of 50 to 200 nM.

As to `Cc1noc(C)c1-c1nc(C(=O)N[C@@H](C)c2ccnc(F)c2)cc(-c2ccc(Cl)cc2)n1` [Compound 59, (S)-6-(4-chlorophenyl)-N-(1-(2-fluoro-4-pyridine)ethyl)-2-(3,5-dimethylisoxazol-4-yl)pyrimidine-4-formamide], the IC50 was more than 1000 nM.

For the molecule `Cn1cc(-c2nc(C(=O)N[C@H]3CCCc4ncccc43)cc(-c3ccc(Cl)cc3)n2)cn1` [Compound 23, (S)-6-(4-chlorophenyl)-N-((S)-5,6,7,8-tetrahydro-6H-quinol-5-yl)-2-(1-methyl-1H-pyrazol-4-yl)pyrimidine-4-formamide], the IC50 is less than 50 nM.

Regarding `C[C@H](NC(=O)c1cc(-c2ccc(Cl)cc2)nc(-c2cnc(Cl)nc2)n1)c1ccnc(F)c1` [Compound 36, (S)-6-(4-chlorophenyl)-N-(1-(2-fluoro-4-pyridine)ethyl)-2-(2-chloropyrimidin-5-yl)pyrimidine-4-formamide], the IC50 was more than 1000 nM.

For the molecule `CC[C@H](NC(=O)c1cc(-c2ccc(Cl)cc2)nc(-c2cnn(C)c2)n1)c1ccc(F)cc1` [Compound 18, (S)-6-(4-chlorophenyl)-N-(1-(4-fluorophenyl)n-propyl)-2-(1-methyl-1H-pyrazol-4-yl)pyrimidine-4-formamide], the IC50 is less than 50 nM.

`COc1ccc([C@H](C)NC(=O)c2cc(-c3ccc(Cl)cc3)nc(-c3cnn(C)c3)n2)cc1Cl` [Compound 29, (S)-6-(4-chlorophenyl)-N-(1-(3-chloro-4-methoxyphenyl)ethyl)-2-(1-methyl-1H-pyrazol-4-yl)pyrimidine-4-formamide]: the IC50 is less than 50 nM.

`C[C@H](NC(=O)c1cc(-c2ccc(Cl)cc2)nc(-c2ccc(C#N)cc2)n1)c1ccnc(F)c1` [Compound 60, (S)-6-(4-chlorophenyl)-N-(1-(2-fluoro-4-pyridine)ethyl)-2-(p-cyanophenyl)pyrimidine-4-formamide]: the IC50 is more than 1000 nM.

Regarding `Cn1cc(-c2nc(C(=O)N[C@H]3CCc4cc(C#N)ccc43)cc(-c3ccc(Cl)cc3)n2)cn1` [Compound 28, (S)-6-(4-chlorophenyl)-N-(5-cyano-(2,3-dihydro)-(−)-1-yl-2-indene)-2-(1-methyl-1H-pyrazol-4-yl)pyrimidine-4-formamide], the IC50 is less than 50 nM.

As for `Cn1cc(-c2nc(C(=O)NCC3(c4ccc(Cl)cc4)CC3)cc(-c3ccc(Cl)cc3)n2)cn1` [Compound 22, (S)-6-(4-chlorophenyl)-N-(1-[1-(4-chlorophenyl)cyclopropyl]methyl)-2-(1-methyl-1H-pyrazol-4-yl)pyrimidine-4-formamide], the IC50 is more than 1000 nM.
